PubChem BioAssay AID743124 (Broad Institute, 2013)
Several values for one entry are separate records, joined by “and”; a condition that tells them apart may be missing. Equal entries are not always repeated. Inconclusive results are not listed. Activity calls are given as the source filed them.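 The calls were made as follows: active = compounds whose fitted half-maximal concentration is at most twice their own top valid dose, with signal falling; inconclusive = flat curve with 30 to 70% inhibition, or poor fit; inactive = the rest.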

Legend:
[1] = test system: S. cerevisiae Rlm1-lacZ reporter, CFW-induced, luminescence 4 h; assay: inhibitors of CFW-induced Rlm1 reporter, dose response, S. cerevisiae, lacZ luminescence, calcofluor white, dry powder (AID 743124)
[2] = as above; conditions: S. cerevisiae Rlm1-lacZ reporter, CFW-induced, luminescence 4 h; at 35 µM (top of the series)

| Compound | AC50 [1] | activity change, negative = inhibition [2] |
| --- | --- | --- |
| CCOC(=O)c1c(-c2ccc(-c3ccccc3)cc2)csc1NC(=O)CNCCN(C)C | > 70 µM (inactive) |  |
| COC(=O)C1=C(C)N(Cc2ccc(F)cc2)C(=S)NC1c1cccc(F)c1 (centres undefined) | > 70 µM (inactive) |  |
| S=c1[nH]c2ccccc2n1CCOc1ccccc1 | > 70 µM (inactive) |  |
| COC(=O)C1=C(C)N(Cc2ccccc2)C(=S)NC1c1ccc(Br)cc1 (centres undefined) |  | 9.97% (inactive) |
| Cc1ccc(C(C)C)c(OCCn2c(=S)[nH]c3ccccc32)c1 | > 70 µM (inactive) |  |
| CCOC(=O)c1c(-c2ccc(F)cc2)csc1NC(=O)CN1CCN(C)CC1 |  | -6.7% (inactive) |
| CCOC(=O)c1c(NC(=O)CN2CCN(C)CC2)sc(C)c1-c1ccc(C)cc1 | > 70 µM (inactive) |  |
| S=c1[nH]c2cccc(Cl)c2n1CCOc1ccccc1 | 26.7 µM |  |
| Cc1ccc(OCCn2c(C)nc3ccccc32)cc1 |  | 13.6% (inactive) |
| Cc1ccc2c(c1)[nH]c(=S)n2CCOc1ccccc1 |  | -5.38% (inactive) |
| Fc1cccc2c1[nH]c(=S)n2CCOc1ccccc1 | > 70 µM (inactive) |  |
| Cc1ccc(OCCn2c(=S)[nH]c3ccccc32)cc1 | 33.2 µM |  |
| CCOC(=O)c1c(-c2ccc(F)cc2)csc1NC(=O)CN1CCN(CC)CC1 |  | -5.43% (inactive) |
| COC(=O)C1=C(C)N(Cc2ccc(Cl)cc2)C(=S)NC1c1ccc(Br)cc1 (centres undefined) |  | 0.264% (inactive) |
| Cc1ccc(OCCn2c(SCCO)nc3ccccc32)c(C(C)C)c1 | > 70 µM (inactive) |  |
| Cc1ccccc1OCCn1c(=S)[nH]c2ccccc21 |  | -14.7% (inactive) |
| CCOC(=O)c1c(-c2ccc(C(C)(C)C)cc2)csc1NC(=O)CN1CCN(CC)CC1 |  | -28.1% (inactive) |
| COC(=O)C1=C(C)N(Cc2ccc(Br)cc2)C(=S)NC1c1ccc(OC)cc1 (centres undefined) |  | 1.69% (inactive) |
| Cc1ccc(OCCn2cnc3ccccc32)cc1 |  | 15.9% (inactive) |
| O=c1[nH]c2ccccc2n1CCOc1ccccc1 |  | 6.62% (inactive) and -10.4% (inactive) |
| CCOC(=O)c1c(-c2ccc(OC)cc2)csc1NC(=O)CN(C)CC(=O)N(C)C |  | -25% (inactive) |
| Fc1ccccc1OCCn1c(=S)[nH]c2ccccc21 | > 70 µM (inactive) |  |
| COC(=O)C1=C(C)N(Cc2ccc(Br)cc2)C(=S)NC1c1ccc(F)cc1 (centres undefined) | > 70 µM (inactive) |  |
| CCOC(=O)c1c(NC(=O)CNCCN(C)C)sc(C)c1-c1ccccc1 |  | -8.38% (inactive) |
